Assay: Strength, stamina and endurance of a training test subject
Format: in vivo, human
Description: Test subject was administered L-Glutamine HCl (pH 6.0) for 30 days.
Training was three days per week, with 3 days of cardio. Dosage was 500 mg per day the first week and 1000 mg per day for week 2-4.
Test subject was taken off the glutamine HCl (pH 6.0) and administered buffered-Glutamine (pH 12.0) for 30 days. Training was three days per week, with 3 days of cardio. Dosage was 500 mg per day for the 5th week and 1000 mg per day for weeks 6-8.

Cl.NC(=O)CC[C@H](N)C(=O)O [L-Glutamine HCl]
changes to strength, stamina or endurance (in words) (Week 1, 500 mg per day): No noticeable changes | changes to strength, stamina or endurance (in words) (Week 2-4, 1000 mg per day): No noticeable changes

Source: patent US12029762B2, “Alkalized organic pharmaceutical or nutraceutical composition” (priority 2009, dated 2024)
